Experimental findings from publication PMC5099554 (British Journal of Clinical Pharmacology, 2016) are described below.

The conditions of this data set: for Tmax / AUC(0-inf) / AUC(0-t) / half-life: male, human, in vivo; for AUC(0-inf): AUCinf; for AUC(0-inf) / AUC(0-t): geometric mean; for AUC(0-t): AUClast; for half-life: t 1/2, geometric mean.
[1] abbreviates: healthy male subjects, plasma, after 2 weeks of fermented red ginseng.
[2] abbreviates: healthy male subjects, plasma, before fermented red ginseng.
[3] abbreviates: After FRG, healthy male subjects, plasma, after 2 weeks of fermented red ginseng.
[4] abbreviates: Before FRG, healthy male subjects, plasma, before fermented red ginseng.
Where [5] appears, read: t max (median), After FRG, healthy male subjects, plasma, after 2 weeks of fermented red ginseng.
Where [6] appears, read: t max (median), Before FRG, healthy male subjects, plasma, before fermented red ginseng.

Like-named read-outs stand apart in the source and are kept apart here.

As to `OCc1ncc2n1-c1ccc(Cl)cc1C(c1ccccc1F)=NC2` [1‐hydroxymidazolam], under “healthy male subjects, plasma”, the “AUCinf, geometric mean ratio, After FRG: Before FRG (90% CI)” value (“AUCinf, geometric mean ratio … (90% CI)” for short) was 0.924 (0.791–1.080); the “AUClast, geometric mean ratio, After FRG: Before FRG (90% CI)” value (“AUClast, geometric mean ratio … (90% CI)” below) is given as 0.944 (0.805–1.107); the “C max, geometric mean ratio, After FRG: Before FRG (90% CI)” value (“C max, geometric mean ratio … (90% CI)” below) is given as 0.750 (0.583–0.966). For the same compound, under setting [1], the “AUCinf, geometric mean, After FRG” value worked out at 74.221 ng·h/mL; the “AUClast, geometric mean, After FRG” value amounted to 69.474 ng·h/mL; the “t 1/2, geometric mean, After FRG” value is 0.678 h; the “t max (median), After FRG” value came to 0.517 h. Moreover, under setting [2], the “AUCinf, geometric mean, Before FRG” value was 80.311 ng·h/mL; the “AUClast, geometric mean, Before FRG” value worked out at 73.587 ng·h/mL; the “t 1/2, geometric mean, Before FRG” value came out at 0.728 h; the “t max (median), Before FRG” value was 0.500 h.
For the compound `COc1ccc2nc([S+]([O-])Cc3ncc(CO)c(OC)c3C)[nH]c2c1` (centres unmarked) [5‐hydroxyomeprazole], for the setting “healthy male subjects, plasma”, the “AUCinf, geometric mean ratio … (90% CI)” value is 1.050 (0.961–1.147); the “AUClast, geometric mean ratio … (90% CI)” value was 0.979 (0.918–1.045); the “C max, geometric mean ratio … (90% CI)” value is 0.945 (0.859–1.039). In addition, under setting [1], the “AUCinf, geometric mean, After FRG” value was found to be 283.859 ng·h/mL; the “AUClast, geometric mean, After FRG” value worked out at 239.033 ng·h/mL; the “t 1/2, geometric mean, After FRG” value stood at 2.716 h; the “t max (median), After FRG” value is 3.000 h. In addition, under setting [2], the “AUCinf, geometric mean, Before FRG” value is 270.368 ng·h/mL; the “AUClast, geometric mean, Before FRG” value came out at 244.051 ng·h/mL; the “t 1/2, geometric mean, Before FRG” value was determined as 1.971 h; the “t max (median), Before FRG” value was 3.000 h.
One may read the Tmax as the time from dosing to the highest level. Broadly, the AUC(0-inf) is the area under the concentration-time curve extrapolated to infinity. Low readings indicate low exposure, high ones high exposure. In general, AUC(0-t) refers to the area under the concentration-time curve up to a stated or last time point. Read a high AUC(0-t) as more exposure. On to `COc1ccc2c(c1)[C@]13CCCC[C@@H]1[C@H](C2)N(C)CC3` [Dextromethorphan, dextromethorphan], for which the Tmax worked out at 2 h. Besides, where the note is “healthy male subjects, plasma”, the “AUCinf, geometric mean ratio … (90% CI)” value is reported as 0.869 (0.638–1.184); the “AUClast, geometric mean ratio … (90% CI)” value is 0.907 (0.681–1.209); the “C max, geometric mean ratio … (90% CI)” value was 0.849 (0.688–1.047). In addition, the “t 1/2, geometric mean, After FRG” value under setting [1] stood at 7.006 h. Besides, the “t 1/2, geometric mean, Before FRG” value under setting [2] is listed as 7.540 h. Also, under setting [3], the AUC(0-inf) was 43.5 ng·h/mL and the AUC(0-t) is 17.1 ng·h/mL. For the same compound, under setting [4], the AUC(0-inf) came to 50.1 ng·h/mL and the AUC(0-t) was determined as 18.9 ng·h/mL.
Broadly, the half-life is how long it takes for the measured level to halve. In the case of `CN1CC[C@@]23CCCC[C@@H]2[C@@H]1Cc1ccc(O)cc13` [Dextrorphan, dextrorphan], for the setting “healthy male subjects, plasma”, the “AUCinf, geometric mean ratio … (90% CI)” value is on record as 1.042 (0.932–1.164); the “AUClast, geometric mean ratio … (90% CI)” value was 1.044 (0.926–1.176); the “C max, geometric mean ratio … (90% CI)” value was 1.024 (0.876–1.198). Besides, the “t max (median), Before FRG” value under setting [2] is listed as 2.000 h. Under setting [3], the AUC(0-inf) worked out at 66.1 ng·h/mL, the AUC(0-t) turned out to be 60.3 ng·h/mL and the half-life is 3.43 h. Under setting [4], this compound had an AUC(0-inf) of 63.5 ng·h/mL, an AUC(0-t) of 57.7 ng·h/mL and a half-life of 3.92 h.
Turning to `CCCCc1nc(Cl)c(C(=O)O)n1Cc1ccc(-c2ccccc2-c2nn[nH]n2)cc1` [EXP3174], for the setting “healthy male subjects, plasma”, the “AUCinf, geometric mean ratio … (90% CI)” value is given as 0.813 (0.687–0.963); the “AUClast, geometric mean ratio … (90% CI)” value is 0.811 (0.684–0.963); the “C max, geometric mean ratio … (90% CI)” value was 0.832 (0.694–0.997). Under setting [3], this compound gave an AUC(0-inf) of 2610 ng·h/mL and an AUC(0-t) of 2500 ng·h/mL. For the same compound, under setting [4], the AUC(0-inf) is 3210 ng·h/mL and the AUC(0-t) came out at 3080 ng·h/mL. For the same compound, the Tmax under setting [5] is 4 h. In addition, the Tmax under setting [6] came out at 3 h.
On to `CCCCc1nc(Cl)c(CO)n1Cc1ccc(-c2ccccc2-c2nn[nH]n2)cc1` [Losartan, losartan], for which, under “healthy male subjects, plasma”, the “AUCinf, geometric mean ratio … (90% CI)” value is listed as 1.047 (0.887–1.237); the “AUClast, geometric mean ratio … (90% CI)” value is reported as 1.048 (0.887–1.239); the “C max, geometric mean ratio … (90% CI)” value is 0.974 (0.797–1.190). For the same compound, under setting [3], the AUC(0-inf) is 549 ng·h/mL, the AUC(0-t) amounted to 542 ng·h/mL and the half-life is 1.94 h. Under setting [4], this compound showed an AUC(0-inf) of 524 ng·h/mL, an AUC(0-t) of 517 ng·h/mL and a half-life of 1.86 h. Moreover, the Tmax under setting [5] amounted to 1.5 h. Moreover, the Tmax under setting [6] turned out to be 1.5 h.
